These results are taken from publication PMC5485444 (Antibiotics, 2017).

Each structure is given as a SMILES string. Converted amounts (≈) assume the structure as drawn. Like-named read-outs stand apart in the source and are kept apart here.

A short description of data set [1]: Solubility in DMSO / DMSO-d6 observed during 1H NMR. The data set is classed as physicochemical. The settings on record: DMSO / DMSO-d6, NMR sample. The procedure: ^1H NMR was used to confirm the presence of AD in the AD-EM (Figure S1). Both EM and AD-EM were dissolved in deuterated dimethyl sulfoxide (DMSO-d6) and spectra acquired. The spectra are in agreement with the reported literature spectra, thus we looked to see changes in the spectra following the conjugation reaction. The processed spectra of each species were compared to monitor structural differences between protons from EM and AD-EM. The AD-EM spectra confirms the presence of both AD and EM, as well as hydrazone formation, indicating successful reaction. In the NMR spectra of AD-EM, AD attachment is confirmed by the presence of two multiplet peaks at approximately 1.9 ppm and from 1.6–1.8 ppm, corresponding to protons from the fused cyclohexane rings of AD. In the spectra of the AD-EM, a singlet peak, corresponding to a hydrazone, appears at 9.0 ppm. […] However, peak placement is consistent between AD-EM and EM, indicating the presence of both species in the AD-EM conjugate.
EM (approximately 40 mg) and AD-EM (approximately 40 mg) were dissolved in 500 µL of DMSO-d6, and sonication was used to promote dissolution. Samples were analyzed on a 600 MHz Varian Nuclear Magnetic Resonance Spectrometer, using 128 scans and a 45 degree pulse angle. Spectra were analyzed using MesReNova software using the residual solvent peak from DMSO-d6 as the reference.

In a further data set the test system is S. aureus. Nature of the data set: Zone of inhibition antibacterial study with drug-loaded insoluble cyclodextrin polymer disks. The data set is classed as cell-based, Staphylococcus aureus. Conditions: approximately two weeks. The procedure: A zone of inhibition study against S. aureus was conducted for approximately two weeks using EM and AD-EM loaded into insoluble cyclodextrin polymer disks to evaluate whether the chemical modification altered the intrinsic antimicrobial activity of EM (Figure 4). […] It is possible that the slight decrease in antibacterial activity after 8 days in AD-EM (compared to EM) can be attributed to the presence of both species in the final AD-EM composition.
Synthesis of insoluble cyclodextrin polymer disks was carried out according to a previously published protocol by Thatiparti et al.. Briefly, 1 g cyclodextrin (CycloLab, Budapest, Hungary) was dissolved in 4 mL dimethylformamide (DMF) and stirred. The solution was cross-linked with hexamethylene diisocyanate (HDI; Sigma Aldrich, St. Louis, MO, USA) in a molar ratio of 1:0.16 (glucose residue: HDI). The solution was cured at 70 °C for 45 min and punched into 8 mm disks. Disks were washed to removed unreacted products over several days in 100% DMF, 50:50 DMF:water, and 100% water before use. […]
The antibacterial activity of EM and AD-EM loaded insoluble cyclodextrin polymer disks was evaluated against S. aureus (GFP labeled S. aureus kindly provided by Ed Greenfield, Case Western Reserve University, Cleveland, OH, USA) according to the protocol outlined by Thatiparti et al.. […]

For data set [2], the system named is S. aureus biofilms. The data set can be described thus: Bacterial biofilm penetration study (colonies remaining in mature biofilm). The data set is classed as cell-based, Staphylococcus aureus. Conditions: for % Control Colonies Remaining: 1.25 mg/mL, mature (72 h) biofilm, vs 90% PBS/10% DMSO control; for Original colonies in the biofilm eradicated: 1 h exposure; for Original colonies killed: 7 h exposure; for Additional killing compared to the 7 h time point: 24 h exposure. As to the method: The ability to penetrate through the biofilm is related to the number of bacteria remaining in the biofilm after exposure to a drug compared to the control condition (90% PBS/10% DMSO). The control condition was set-up in such a way that the biofilm coated cyclodextrin polymer was placed in a solution under the same conditions used to make the drug-containing solutions. The colonies remaining in the biofilms after 1, 7, and 24 h after being treated with AD-EM, EM, or the control solution are reported in Table 2, where the remaining colonies from drug-treated biofilms are compared to the number of colonies in a control solution. After only 1 h of exposure to the drug (AD-EM or EM), nearly 30% of the original colonies in the biofilm were eradicated, and after 7 h of drug (AD-EM or EM) exposure >85% of the original colonies were killed. […] We hypothesize that this could be due to presence of planktonic bacteria naturally resistant to antibiotic effect, as well as the development of drug-resistant bacteria that are unable to be fully eradicated even after extended periods of exposure time to the drug. […] High variability in the studies reflects both the inconsistent nature of the biofilm as well as difficulty recovering bacteria to make accurate counts.
5 mm insoluble cyclodextrin polymer disks were placed in 3 mL solutions of 2× Trypticase soy broth with 30 μL of freshly cultured GFP-labeled S. aureus. Solutions were incubated at 37 °C for 72 h to form a mature biofilm. Each condition was set-up in triplicate. Following incubation, polymer disks were removed from the bacterial culture, excess broth removed, and placed in a 1.25 mg/mL drug solution of either EM or AD-EM dissolved in PBS with 10% DMSO. As a control, biofilm coated disks were also placed in a solution of just PBS and 10% DMSO. Each solution was placed in a laboratory shaker at 37 °C for either 1, 7, or 24 h. After this time, disks were removed from the drug solution, dried off, and placed in 4 mL of sterile Trypticase soy broth and homogenized for 30 s with an Omni TH homogenizer. Then, 70 μL of each solution was spread in duplicate on Trypticase soy agar plates and incubated overnight. Bacterial colonies were then counted and averaged using ImageJ software. Bacterial eradication was calculated as the percentage of colonies remaining in drug treated samples after different time points compared to the control colonies at that time point.

Data set [3] can be described thus: Solubility study in aqueous buffers and organic solvents. In kind it is physicochemical. As to the method: The solubility of AD-EM compared to EM was evaluated in several different aqueous buffers (i.e., PBS, Water, Acetate pH 5.0) and polar solvents (i.e., methanol, ethyl acetate, acetone). The solubility study presented in Table 1 further verifies that modified AD-EM is more hydrophobic than EM due to the addition of the hydrophobic AD group. […] The increased hydrophobicity of AD-EM is desirable to enhance its ability to bind to tissue, thereby increasing its tissue residence time and therapeutic activity.
Small samples of both EM and AD-EM (1–3 mg samples for aqueous solvents (water, PBS (pH 7.4), and acetate buffer (pH 5.0)); 10 mg samples for methanol, ethyl acetate, and acetone) were placed in individual vials. Each solvent was gradually added to either the EM or AD-EM samples in 50–100 µL increments until the drug sample was completely dissolved and the solution was homogeneous. Three trials were completed for each drug in each solvent and the results are reported as an average of these three trials. The solubility limit of each drug was determined to be the minimum amount of volume of each solvent where the drug was completely soluble.

Data set [4] can be described thus: Acidic stability / acidic conversion absorbance spectral scan. In kind it is physicochemical. The settings on record: for Acidic conversion over several hours (absorbance pattern, words): pH 5.0 vs neutral vs acidic later neutralized, t = several hours. The procedure:
The PBS solution was diluted to a concentration of 70 μM and concentrated sulfuric acid ([…]) was added to the solution in a volume equal to that of the total volume of the initial 70 µM solution to elicit a color change detectable with absorbance spectroscopy. Two separate solutions were initially created with the acetate buffer. One solution was diluted to 70 μM and allowed to sit for several hours at room temperature. The other acetate solution was diluted to a slightly higher concentration, sat for 1 h at room temperature, was neutralized with sodium hydroxide (0.1 N) (such that the concentration of the solution was 70 µM), and sat for several more hours at room temperature. Both acetate solutions were treated with equal volumes of sulfuric acid to elicit a color change.

Data set [5] has as its system S. aureus biofilms. The data set can be described thus: Bacterial biofilm penetration study (colonies remaining in mature biofilm). In kind it is cell-based, Staphylococcus aureus. The settings on record: 48 and 72 h exposure, data not shown.
Where [6] appears, read: aqueous buffer, thermodynamic from solid, Acetate buffer, pH 5.0, n = 3, read-out: Relative solubility in acetate buffer.
[7] abbreviates: aqueous buffer, thermodynamic from solid, Phosphate Buffered Saline (PBS), pH 7.4, n = 3, read-out: Relative solubility in PBS.
Where [8] appears, read: organic solvent or mixture, thermodynamic from solid, Acetone, n = 3, read-out: Relative solubility in acetone.
Setting [9] is: organic solvent or mixture, thermodynamic from solid, Ethyl Acetate, n = 3, read-out: Relative solubility in ethyl acetate.
Where [10] appears, read: organic solvent or mixture, thermodynamic from solid, Methanol, n = 3, read-out: Relative solubility in methanol.
[11] abbreviates: thermodynamic from solid, Water, n = 3, read-out: Relative solubility in water.

Turning to `NNC(=O)C12CC3CC(CC(C3)C1)C2` [AD, adamantane-1-carbohydrazide], the “Solubility in DMSO” value in data set [1] is on record as “completely insoluble”.
As a reminder, the solubility is the concentration that dissolves in the medium under given conditions. In the case of `CC[C@H]1OC(=O)[C@H](C)[C@@H](OC2C[C@@](C)(OC)[C@@H](O)[C@H](C)O2)[C@H](C)[C@@H](OC2O[C@H](C)C[C@H](N(C)C)[C@H]2O)[C@](C)(O)C[C@@H](C)/C(=N\NC(=O)C23CC4CC(CC(C4)C2)C3)[C@H](C)[C@@H](O)[C@]1(C)O` (stereo partly drawn) [AD-EM, adamantane-modified erythromycin], in data set [1], the “Solubility in DMSO” value was “slightly insoluble”. The “Zone of inhibition activity” value with S. aureus is reported as “comparable activity”. For the same compound, the “% Control Colonies Remaining” value in the data set with S. aureus biofilms [2] (1 h drug incubation) is 62.7% ± 22.1%; in the data set on S. aureus biofilms [2] (7 h drug incubation), 14.8% ± 13.7%; in the data set on S. aureus biofilms [2] (24 h drug incubation) it was 11.7% ± 7.9%. Also, in the data set on S. aureus biofilms [2], the “Original colonies in the biofilm eradicated” value is recorded as about 30%. Also, the Original colonies killed with S. aureus biofilms [2] is reported as over 85%. Moreover, the “Additional killing compared to the 7 h time point” value in the data set on S. aureus biofilms [2] was ~ 2%. The solubility in data set [3] (setting [6]) was 1390 ± 40 µg/mL (≈ 1.53 mM); in data set [3] (setting [7]), 340 ± 10 µg/mL (≈ 0.374 mM); in data set [3] (setting [8]), 37500 µg/mL (≈ 41.2 mM); in data set [3] (setting [9]), over 40000 µg/mL; in data set [3] (setting [10]), 7300 ± 200 µg/mL (≈ 8.02 mM); in data set [3] (several polar solvents, comparable to EM, read-out: Solubility in several polar solvents) it was about 40000 µg/mL (≈ 43.9 mM). In data set [3] (setting [11]), the solubility amounted to 330 ± 30 µg/mL (≈ 0.363 mM). For the same compound, the “Acidic conversion over several hours (absorbance pattern, words)” value in data set [4] is reported as “no distinguishable differences”. In addition, in data set [4] (pH 5.0 vs neutral, t = several days), the “Acidic conversion over several days (absorbance signal, words)” value is recorded as “lower absorbance signal than in neutral conditions”.
As to `CC[C@H]1OC(=O)[C@H](C)[C@@H](O[C@H]2C[C@@](C)(OC)[C@@H](O)[C@H](C)O2)[C@H](C)[C@@H](O[C@@H]2O[C@H](C)C[C@H](N(C)C)[C@H]2O)[C@](C)(O)C[C@@H](C)C(=O)[C@H](C)[C@@H](O)[C@]1(C)O` [EM, Erythromycin], in the data set with S. aureus biofilms [5], the “Colonies remaining after extended exposure” value is “approximately the same number of colonies remained”. Moreover, the “Zone of inhibition activity” value with S. aureus is listed as “comparable activity”. Also, the “% Control Colonies Remaining” value is 71.6% ± 40.2% with S. aureus biofilms [2] (1 h drug incubation), 10.5% ± 6.8% in the data set on S. aureus biofilms [2] (7 h drug incubation) and 8.3% ± 6.6% with S. aureus biofilms [2] (24 h drug incubation). Besides, the “Original colonies in the biofilm eradicated” value in the data set on S. aureus biofilms [2] is reported as about 30%. Further, in the data set on S. aureus biofilms [2], the Original colonies killed was over 85%. The “Additional killing compared to the 7 h time point” value with S. aureus biofilms [2] is given as ~ 2%. Besides, the solubility in data set [3] (setting [6]) was 15000 µg/mL (≈ 20.4 mM); in data set [3] (setting [7]) it was 1600 ± 400 µg/mL (≈ 2.18 mM); in data set [3] (setting [8]), over 40000 µg/mL; in data set [3] (setting [9]) it was over 40000 µg/mL; in data set [3] (setting [10]), over 40000 µg/mL; in data set [3] (setting [11]), 1500 ± 200 µg/mL (≈ 2.04 mM). Besides, the “Absorbance signal in acidic solution” value in data set [4] (acetate pH 5.0, several hours, after 27 N sulfuric acid, 35 μM final) is 0.17. Further, in data set [4] (acetate pH 5.0 then neutralized with NaOH, several hours), the “Absorbance signal, acidic solution later neutralized” value is reported as 0.22. The “Absorbance signal in neutral solution” value in data set [4] (neutral PBS, after 27 N sulfuric acid, 35 μM final) was 0.22. For the same compound, the “Acidic conversion over several hours (absorbance pattern, words)” value in data set [4] was “noticeable acidic conversion”.
